Our source for the IC50 values is US20250368616A1, “NITROGEN-CONTAINING HETEROCYCLIC DERIVATIVE INHIBITOR, AND PREPARATION METHOD THEREFOR AND USE THEREOF” (SHANGHAI HANSOH BIOMEDICAL CO., LTD., priority 2021, published 2025).

Assay [1] addresses EGFR L858R/T790M/C797S mutant kinase (Homo sapiens (Human), UniProt P00533, C797S/L858R/T790M). Put plainly: HTRF kinase assay, EGFR L858R/T790M/C797S mutant kinase. Format: biochemical. Conditions: 120 minutes at room temperature. An excerpt:
(§1) Test Example 1. Determination of the Inhibitory Effect of the Compounds of the Present Invention on the Activity of EGFR del19/T790M/C797S and EGFR L858R/T790M/C797S Mutant Kinases
(§2) Experimental objective: The objective of this test example is to test the inhibitory activity of the compounds on the activity of EGFR del19/T790M/C797S and EGFR L858R/T790M/C797S mutant kinases.
(§3) Experimental method: This experiment used Cisbio's HTRF kinase assay method (Cisbio #62TK0PEB), wherein a catalytic reaction occurred between the substrate polypeptide TK and ATP in the presence of the tyrosine kinase with EGFR del19/T790M/C797S or EGFR L858R/T790M/C797S mutation, the substance was phosphorylated, and the activity of the kinase was characterized by measuring the content of the phosphorylated substrate generated during the reaction, and the half inhibitory concentration IC50 of the compound on the activity of EGFR del19/T790M/C797S or EGFR L858R/T790M/C797S mutant kinase was obtained.
(§4) Specific Experimental Operations were as Follows: • the kinase reaction was carried out in a white 384-well plate (Perkin Elmer #6008280), and 1-5 μL of compounds of different concentrations which were diluted with 1% DMSO-containing ddH2O were added; to the positive control wells were added 1-5 μL of 1% DMSO-containing ddH2O, followed by 1-5 μL of 0.5-5 nM 4×EGFR del19/T790M/C797S or EGFR L858R/T790M/C797S mutant kinase solution which was diluted with Dilution buffer (5× kinase buffer, MgCl2 6.65 Mm, MnCl2 1.33 mM, DTT 1.33 mM); to the negative control wells were added 1-5 μL of Dilution buffer; to all the wells were added 1-5 μL of 4 μM 4× substrate TK solution which was prepared with 10× Dilution buffer, and finally added 1-5 μL of 24 μM 4×ATP solution which was diluted with Dilution buffer to start the reaction; after reacting at room temperature for 120 minutes, 10 μL of detection solution (TK antibody 16 nM, XL665 0.5 μM) was added to each well, same was reacted at room temperature in the dark for 20 minutes, and then the […] was detected using a BioTek Synergy H1 microplate reader.
(§5) The percent inhibition data for compound-treated wells was calculated according to the positive control wells (DMSO control wells) and negative control wells (no kinase added) on the plate {% inhibition rate=100−[(test compound value−negative control value)]/(positive control value−negative control value)×100}. GraphPad prism was used to fit different concentrations and corresponding percent inhibition rate data to a 4-parameter nonlinear logistic equation to calculate IC50 values.

In assay [2] the test system is Ba/F3 EGFR Del19/C797S cells. Put plainly: Cell proliferation inhibition assay (Cell Titer-Glo), Ba/F3 EGFR Del19/C797S. The format is cell-based. Particulars: 72 hours, read-out: Ba/F3 EGFR Del19_C797S IC50. A digest of the protocol: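 Ba/F3 cells carrying EGFR Del19/T790M/C797S or Del19/C797S, grown in RPMI 1640 with 10% FBS, were plated overnight and then exposed to serially diluted compound for 72 h at 37° C, 5% CO2. Viability was read by CellTiter-Glo luminescence; IC50 came from a nonlinear fit of inhibition rate against concentration.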
For orientation: Cellular ATP, detected with luciferase, serves as a proxy for viable cell number.

Assay [3] has as its target EGFR del19/T790M/C797S mutant kinase (Homo sapiens, UniProt P00533, C797S/DEL746-750/T790M). Nature of the assay: HTRF kinase assay, EGFR del19/T790M/C797S mutant kinase. Format: biochemical. Conditions: 120 minutes at room temperature.
Source text: as §1, §2, §3, §4, §5

The test system of assay [4] is Ba/F3 EGFR Del19/T790M/C797S cells. Put plainly: Cell proliferation inhibition assay (Cell Titer-Glo), Ba/F3 EGFR Del19/T790M/C797S. Format: cell-based. Particulars: 72 hours, read-out: Ba/F3 EGFR Del19_T790M_C797S IC50. An excerpt: Test Example 2: Cell Proliferation Inhibition Assay
Experimental objective: The objective of this test example is to test the inhibitory activity of compounds on the proliferation of different EGFR C797S drug-resistant mutant cell lines Ba/F3 EGFR Del19/T790M/C797S, Ba/F3 EGFR L858R/T790M/C797S, and Ba/F3 EGFR Del19/C797S.
• Ba/F3 EGFR Del19/T790M/C797S cells were purchased from KYinno Biotechnology Co., Ltd.; • Ba/F3 EGFR Del19/C797S cells were purchased from CoBioer Biosciences Co., Ltd.; • Ba/F3 EGFR L858R/T790M/C797S cells were purchased from CoBioer Biosciences Co., Ltd.; • Cell Titer-Glo was purchased from Promega, with a catalog number of G7573; • RPMI 1640 was purchased from Gibco, with a catalog number of 22400089; • FBS was purchased from Gibco, with a catalog number of 10091148; • cell culture plates were purchased from Corning, with a catalog number of 3610.
The inhibitory activity of the compound on the proliferation of different EGFR C797S drug-resistant mutant cell lines was detected using the Cell Titer-Glo method. The different cell lines were cultured in RPMI 1640 complete culture medium containing 10% FBS under conditions of 37° C. and 5% CO2, the cells were collected by centrifugation when growing to a certain density, and adjusted to appropriate cell density after counting, the cells were spread on a white 96-well plate at 90 μL/well, and cultured in a 37° C., 5% CO2 incubator overnight, prepared compound solutions of different concentrations were added at 10 μL/well, corresponding solvent controls were set, and all wells were cultured in a 37° C., 5% CO2 incubator for 72 hours, 50 μL of CellTiter-Glo solution was added to each well, shook and mixed evenly, and incubated in the dark for 10 minutes, and a BioTek Synergy H1 microplate reader was used for reading.
The luminescence signal value was used to calculate the inhibition rate. Graphpad Prism software was used to fit the concentration and inhibition rate to a nonlinear regression curve, so as to obtain the IC50 value, as shown in Tables 3 and 4 below for details.

Chain of EGFR L858R/T790M/C797S mutant kinase (P00533 25-1210 T790M/C797S/L858R): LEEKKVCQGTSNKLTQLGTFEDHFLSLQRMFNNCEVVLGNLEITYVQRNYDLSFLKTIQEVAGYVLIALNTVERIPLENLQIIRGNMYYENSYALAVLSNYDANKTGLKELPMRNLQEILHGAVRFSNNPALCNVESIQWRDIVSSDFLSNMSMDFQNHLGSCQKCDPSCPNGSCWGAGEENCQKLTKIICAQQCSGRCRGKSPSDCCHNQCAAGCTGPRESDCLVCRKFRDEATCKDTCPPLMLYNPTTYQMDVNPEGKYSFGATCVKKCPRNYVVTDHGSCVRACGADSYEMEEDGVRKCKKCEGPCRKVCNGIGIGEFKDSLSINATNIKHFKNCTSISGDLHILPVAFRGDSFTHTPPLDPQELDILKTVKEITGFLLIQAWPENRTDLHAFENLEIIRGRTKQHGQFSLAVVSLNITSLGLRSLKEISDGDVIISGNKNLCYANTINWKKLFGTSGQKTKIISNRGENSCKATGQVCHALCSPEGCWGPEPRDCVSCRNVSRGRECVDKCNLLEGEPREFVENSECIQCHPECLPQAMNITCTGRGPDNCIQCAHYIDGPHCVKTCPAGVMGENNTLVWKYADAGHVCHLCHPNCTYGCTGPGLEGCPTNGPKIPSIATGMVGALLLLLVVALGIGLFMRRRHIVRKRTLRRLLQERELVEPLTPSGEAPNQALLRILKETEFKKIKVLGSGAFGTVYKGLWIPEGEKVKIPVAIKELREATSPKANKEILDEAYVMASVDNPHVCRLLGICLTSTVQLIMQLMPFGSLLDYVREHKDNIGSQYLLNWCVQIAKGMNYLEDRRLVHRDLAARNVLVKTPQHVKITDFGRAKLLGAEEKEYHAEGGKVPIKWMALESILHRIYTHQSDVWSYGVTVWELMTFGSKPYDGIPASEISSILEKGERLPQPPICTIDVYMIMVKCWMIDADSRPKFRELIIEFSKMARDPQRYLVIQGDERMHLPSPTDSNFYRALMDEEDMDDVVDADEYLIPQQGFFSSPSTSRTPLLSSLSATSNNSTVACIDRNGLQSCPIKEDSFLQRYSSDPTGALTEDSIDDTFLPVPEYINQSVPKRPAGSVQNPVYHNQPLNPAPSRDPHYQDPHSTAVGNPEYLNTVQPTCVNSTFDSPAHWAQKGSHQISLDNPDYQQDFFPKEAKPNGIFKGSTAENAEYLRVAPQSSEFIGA
Chain of EGFR del19/T790M/C797S mutant kinase (P00533 with tags, fused parts or gaps C797S/DEL746-750/T790M limits assumed): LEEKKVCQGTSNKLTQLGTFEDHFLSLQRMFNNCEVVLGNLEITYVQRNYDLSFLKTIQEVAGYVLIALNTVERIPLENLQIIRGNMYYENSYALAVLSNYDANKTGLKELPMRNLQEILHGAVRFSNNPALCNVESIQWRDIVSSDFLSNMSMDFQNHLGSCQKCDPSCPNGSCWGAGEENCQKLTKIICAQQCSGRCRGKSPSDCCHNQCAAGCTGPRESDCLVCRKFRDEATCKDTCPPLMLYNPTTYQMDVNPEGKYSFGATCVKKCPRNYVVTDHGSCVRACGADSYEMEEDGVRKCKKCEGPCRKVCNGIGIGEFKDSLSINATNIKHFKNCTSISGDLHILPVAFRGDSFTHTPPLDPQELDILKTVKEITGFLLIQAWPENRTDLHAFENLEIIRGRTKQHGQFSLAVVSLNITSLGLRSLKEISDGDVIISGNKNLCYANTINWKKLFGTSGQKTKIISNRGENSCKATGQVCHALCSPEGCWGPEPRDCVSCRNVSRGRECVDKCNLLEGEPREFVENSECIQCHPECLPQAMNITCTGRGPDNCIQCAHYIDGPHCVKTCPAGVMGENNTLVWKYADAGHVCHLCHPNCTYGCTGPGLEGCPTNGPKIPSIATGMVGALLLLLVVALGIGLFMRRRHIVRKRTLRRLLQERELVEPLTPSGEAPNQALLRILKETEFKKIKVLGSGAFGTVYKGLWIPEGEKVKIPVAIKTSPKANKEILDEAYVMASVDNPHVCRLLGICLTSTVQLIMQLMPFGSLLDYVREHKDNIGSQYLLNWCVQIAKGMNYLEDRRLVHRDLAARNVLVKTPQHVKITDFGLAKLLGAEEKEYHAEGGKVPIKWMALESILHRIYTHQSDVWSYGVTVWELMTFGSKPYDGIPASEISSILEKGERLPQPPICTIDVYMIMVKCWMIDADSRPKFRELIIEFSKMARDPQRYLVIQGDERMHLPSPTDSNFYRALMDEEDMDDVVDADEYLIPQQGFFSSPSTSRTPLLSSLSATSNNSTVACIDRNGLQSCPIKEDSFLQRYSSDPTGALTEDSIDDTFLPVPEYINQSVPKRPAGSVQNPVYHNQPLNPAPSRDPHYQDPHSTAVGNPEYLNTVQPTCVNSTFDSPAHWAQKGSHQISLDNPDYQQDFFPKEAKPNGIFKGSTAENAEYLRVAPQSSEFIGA

As for `CC(C)c1ccc(N2C[C@H](CS(C)(=O)=O)[C@H]2C)c2cnc(Nc3ccnc(-c4cnn(C5CC5)c4)n3)cc12` [Example 15, N-(2-(1-cyclopropyl-1H-pyrazol-4-yl)pyrimidin-4-yl)-5-isopropyl-8-((2R,3S)-2-methyl-3-((methanesulfonyl)methyl)azetidin-1-yl)isoquinolin-3-amine], the IC50 was found to be 1.9 nM in assay [1], 41 nM in assay [2] and 2.5 nM in assay [3].
In the case of `CC(C)c1ccc(N2C[C@H](CS(C)(=O)=O)[C@H]2C)c2cnc(Nc3ccnc(-c4cnn(CCF)c4)n3)cc12` [Example 27, N-(2-(1-(2-fluoroethyl)-1H-pyrazol-4-yl)pyrimidin-4-yl)-5-isopropyl-8-((2R,3S)-2-methyl-3-((methanesulfonyl)methyl)azetidin-1-yl)isoquinolin-3-amine], the figures for the IC50 in assay [1], in assay [2] and in assay [3] were 1.9 nM, 40 nM and 8.9 nM, respectively.
`CC(C)c1ccc(N2C[C@H](CS(C)(=O)=O)[C@H]2C)c2cnc(Nc3ccnc(-c4cnn(C5CCN(C)CC5)c4)n3)cc12` [Example 14, 5-isopropyl-8-((2R,3S)-2-methyl-3-((methanesulfonyl)methyl)azetidin-1-yl)-N-(2-(1-(1-methylpiperidin-4-yl)-1H-pyrazol-4-yl)pyrimidin-4-yl)isoquinolin-3-amine]: the values for the IC50 in assay [1], in assay [2] and in assay [3] were 0.73 nM, 54 nM and 3.6 nM, respectively.
For the molecule `CC(C)c1ccc(N2C[C@H](CS(C)(=O)=O)[C@H]2C)c2cnc(Nc3ccnc(-c4cnn(CC5CCO5)c4)n3)cc12` (stereo partly drawn) [Example 21, 5-isopropyl-8-((2R,3S)-2-methyl-3-((methanesulfonyl)methyl)azetidin-1-yl)-N-(2-(1-(oxetan-2-ylmethyl)-1H-pyrazol-4-yl)pyrimidin-4-yl)isoquinolin-3-amine], the IC50 in assay [1] is 0.6 nM; in assay [2], 96 nM; in assay [3], 3.9 nM.
Regarding `CC(C)c1ccc(N2CC(CS(C)(=O)=O)C2)c2cnc(Nc3ccnc(-c4cnn(S(=O)(=O)C5CC5)c4)n3)cc12` [Example 1, N-(2-(1-(cyclopropylsulfonyl)-1H-pyrazol-4-yl)pyrimidin-4-yl)-5-isopropyl-8-(3-((methanesulfonyl)methyl)azetidin-1-yl)isoquinolin-3-amine], the IC50 stood at 0.51 nM in assay [1], 10 nM in assay [4], 14 nM in assay [2] and 0.58 nM in assay [3].
In the case of `CC(C)c1ccc(N2C[C@H](CS(C)(=O)=O)[C@H]2C)c2cnc(Nc3ccnc(-c4cnn(C)c4)n3)cc12` [Example 24, 5-isopropyl-N-(2-(1-methyl-1H-pyrazol-4-yl)pyrimidin-4-yl)-8-((2R,3S)-2-methyl-3-((methanesulfonyl)methyl)azetidin-1-yl)isoquinolin-3-amine], the IC50 was determined as 0.3 nM in assay [1], 10 nM in assay [4], 29 nM in assay [2] and 3.6 nM in assay [3].
